# From patent US12514251B2, “Fused heterocyclic compounds and their use as pest control agents” (priority 2020, dated 2026)
# What was measured:
# Assay type in all cases: in vivo
# Plutella xylostella = assay: Plutella xylostella, leaf dip method; conditions: foliar, cabbage leaf dip, second instar larvae, 72 h after release, dead + moribund vs untreated control, read-out: percent mortality
# Method in brief: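 Cabbage leaves were dipped for 10 s in compound diluted with 0.01% Triton-X, shade dried and offered singly to second instar larvae. Trays were held at 25° C. and 70% relative humidity. Dead plus moribund larvae were scored at 72 h, and percent mortality was expressed relative to untreated control.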
# Nilaparvata lugens = assay: Nilaparvata lugens, seedling dip method; conditions: paddy seedling dip, third instar nymphs, 72 h after release, dead + moribund vs untreated control, read-out: percent mortality
# Method: The seedling dip method was used for testing, wherein the required quantity of the compound was weighed and dissolved in a tube containing solvent solution. The tube was put on a vortex at 2000 rpm for 90 min for proper mixing, then diluted with 0.01% Triton-X solution to the desired test concentration.
# Paddy seedlings were dipped in the compound solution for 10 seconds, shade dried for 20 min and then the seedlings were placed in glass test tubes with the roots kept in water. 15 third instar nymphs were released into each test tube and the tubes were kept in a plant growth chamber at a temperature of 25° C. and relative humidity of 75%. Observations on dead, moribund and alive nymphs were recorded 72 h after the release. Percent mortality was calculated by combining dead and moribund nymphs and comparing the result to the one of the untreated control.
# Myzus persicae = assay: Myzus persicae, leaf dip method; conditions: foliar, capsicum leaf dip, third instar nymphs, 72 h after release, dead + moribund vs untreated control, read-out: percent mortality
# Method: The leaf dip method was used for testing, wherein the required quantity of the compound was weighed and dissolved in a tube containing solvent solution. The tube was put on a vortex at 2000 rpm for 90 min for proper mixing, then diluted with 0.01% Triton-X solution to the desired test concentration. Capsicum leaves were dipped in the compound solution for 10 seconds, shade dried for 20 min and then placed, with the abaxial side of the leaf up, in single cells of a bio-assay tray containing 4 ml of a 1% agar-agar solution. Known numbers of third instar nymphs, collected in petri plates, were released into the cell with the treated leaf and the cell was covered with a perforated lid for better aeration. The trays were kept in a plant growth chamber at a temperature of 25° C. and a relative humidity of 70%. Observations on dead, moribund and alive nymphs were recorded 72 h after the release. Percent mortality was calculated by combining dead and moribund nymphs and comparing the result with the one of the untreated control.
# Bemisia tabaci = assay: Bemisia tabaci, leaf dip method; conditions: foliar, brinjal leaf dip, whitefly adults, 72 h after release, dead + moribund vs untreated control, read-out: percent mortality
# Method: The leaf dip method was used for testing, wherein the required quantity of the compound was weighed and dissolved in a tube containing solvent solution. The tube was put on a vortex at 2000 rpm for 90 min for proper mixing, then diluted with 0.01% Triton-X solution to get the desired test concentration. Brinjal leaves were dipped in the compound solution for 10 seconds; shade dried for 20 min and then placed, with the abaxial side of the leaf up, on 4 ml of a 1% agar-agar solution in respective perforated container caps. Known numbers of freshly emerged whitefly adults were collected, using a modified aspirator, and released into a perforated container in which the cap containing the treated leaf was placed. The containers were kept in a plant growth chamber at a temperature of 25° C. and relative humidity of 70%.
# Observations on dead, moribund and alive adults were recorded 72 h after the release. Percent mortality was calculated by combining dead and moribund adults and comparing the result to the one of the untreated control. The compounds 55 87 and 198 were recorded ≥70 percent mortality @ 300 PPM.
SMILES,mortality at 300 ppm (Plutella xylostella),mortality at 300 ppm (Nilaparvata lugens),mortality at 300 ppm (Myzus persicae),mortality at 300 ppm (Bemisia tabaci)
"CCS(=O)(=O)c1ccc(NC)nc1-c1ccn2nc(C(F)(F)F)cc2n1 [Compound 167, 5-(ethylsulfonyl)-N-methyl-6-(2-(trifluoromethyl)pyrazolo[1,5-a]pyrimidin-5-yl)pyridin-2-amine]",≥ 70%,≥ 70%,≥ 70%,–
"CCS(=O)(=O)c1ccc(C)nc1-c1ccn2nc(C(F)(F)F)cc2n1 [Compound 182, 5-(3-(ethylsulfonyl)-6-methylpyridin-2-yl)-2-(trifluoromethyl)pyrazolo[1,5-a]pyrimidine]",≥ 70%,≥ 70%,≥ 70%,–
"CCS(=O)(=O)c1ccc(NC2CC2)nc1-c1ccn2nc(C(F)(F)F)cc2n1 [Compound 141, N-cyclopropyl-5-(ethylsulfonyl)-6-(2-(trifluoromethyl)pyrazolo[1,5-a]pyrimidin-5-yl)pyridin-2-amine]",≥ 70%,≥ 70%,≥ 70%,–
"CCS(=O)(=O)c1ccc(-n2nccn2)nc1-c1cnc2cc(C(F)(F)F)nn2c1 [Compound 55, 6-(3-(ethylsulfonyl)-6-(2H-1,2,3-triazol-2-yl)pyridin-2-yl)-2-(trifluoromethyl)pyrazolo[1,5-a]pyrimidine]",–,–,–,≥ 70%
